According to ChEMBL document CHEMBL5113431, “Synthesis and initial in vitro evaluation of PSMA-targeting ligands with a modified aromatic moiety at the lysine ε-nitrogen atom” (Bioorg Med Chem Lett, 2022):

Legend:
[1] = biological target: Glutamate carboxypeptidase 2 (Homo sapiens, UniProt Q04609); test: Inhibition of PSMA in human LNCaP cell extracts using NAAG as substrate by amplex red reagent based assay; format: cell-free
[2] = Drug uptake in PSMA overexpressing human LNCaP cells at 4 to 40 nM by flow cytometry; format: ADME, cell-based; details: 0.04 µM, dose 4-40 nM

Glutamate carboxypeptidase 2, sequence (Q04609 whole entry): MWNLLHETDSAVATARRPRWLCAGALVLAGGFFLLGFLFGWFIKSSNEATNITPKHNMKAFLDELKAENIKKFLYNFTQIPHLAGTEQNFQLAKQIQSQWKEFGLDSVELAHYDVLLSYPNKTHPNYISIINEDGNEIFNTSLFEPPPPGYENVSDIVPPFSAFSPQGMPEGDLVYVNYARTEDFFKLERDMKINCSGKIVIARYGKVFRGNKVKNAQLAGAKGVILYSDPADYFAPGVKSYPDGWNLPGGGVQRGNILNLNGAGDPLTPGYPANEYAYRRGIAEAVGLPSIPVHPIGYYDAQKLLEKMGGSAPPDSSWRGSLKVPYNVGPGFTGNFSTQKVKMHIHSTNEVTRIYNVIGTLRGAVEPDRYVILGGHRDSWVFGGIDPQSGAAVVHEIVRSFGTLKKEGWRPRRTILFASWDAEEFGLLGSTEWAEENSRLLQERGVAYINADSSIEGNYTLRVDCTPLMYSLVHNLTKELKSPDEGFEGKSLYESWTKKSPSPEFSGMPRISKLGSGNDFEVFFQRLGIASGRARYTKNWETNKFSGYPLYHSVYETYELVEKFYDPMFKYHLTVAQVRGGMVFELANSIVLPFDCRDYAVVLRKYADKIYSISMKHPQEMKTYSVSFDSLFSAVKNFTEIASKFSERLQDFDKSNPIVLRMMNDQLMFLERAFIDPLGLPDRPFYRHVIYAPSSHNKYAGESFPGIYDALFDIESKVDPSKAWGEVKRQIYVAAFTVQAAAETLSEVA

SMILES	IC50 [1]	Drug uptake [2]
[N-]=[N+]=NCCCNC(=O)[C@H](Cc1ccccc1)NC(=O)[C@H](Cc1ccccc1)NC(=O)CCC(=O)NCCCCCC(=O)N(CCCC[C@H](NC(=O)N[C@@H](CCC(=O)O)C(=O)O)C(=O)O)Cc1cccc([N+](=O)[O-])c1	23 nM	
[N-]=[N+]=NCCCNC(=O)[C@H](Cc1ccccc1)NC(=O)[C@H](Cc1ccccc1)NC(=O)CCC(=O)NCCCCCC(=O)N(CCCC[C@H](NC(=O)N[C@@H](CCC(=O)O)C(=O)O)C(=O)O)Cc1ccccc1[N+](=O)[O-]	16 nM	
CN1/C(=C/C=C/C=C/C2=[N+](CCCCCC(=O)NCc3cn(CCCNC(=O)[C@H](Cc4ccc(O)cc4)NC(=O)[C@H](Cc4ccccc4)NC(=O)CCC(=O)NCCCCCC(=O)N(CCCC[C@H](NC(=O)N[C@@H](CCC(=O)O)C(=O)O)C(=O)O)Cc4cccc(Cl)c4)nn3)c3ccc(S(=O)(=O)[O-])cc3C2(C)C)C(C)(C)c2cc(S(=O)(=O)O)ccc21		Active
COc1ccc(CN(CCCC[C@H](NC(=O)N[C@@H](CCC(=O)O)C(=O)O)C(=O)O)C(=O)CCCCCNC(=O)CCC(=O)N[C@@H](Cc2ccccc2)C(=O)N[C@@H](Cc2ccccc2)C(=O)NCCCN=[N+]=[N-])c(OC)c1	23 nM	
[N-]=[N+]=NCCCNC(=O)[C@H](Cc1ccc(O)cc1)NC(=O)[C@H](Cc1ccccc1)NC(=O)CCC(=O)NCCCCCC(=O)N(CCCC[C@H](NC(=O)N[C@@H](CCC(=O)O)C(=O)O)C(=O)O)Cc1ccccc1[N+](=O)[O-]	101 nM	
[N-]=[N+]=NCCCNC(=O)[C@H](Cc1ccc(O)c([N+](=O)[O-])c1)NC(=O)[C@H](Cc1ccccc1)NC(=O)CCC(=O)NCCCCCC(=O)N(CCCC[C@H](NC(=O)N[C@@H](CCC(=O)O)C(=O)O)C(=O)O)Cc1ccc(C(=O)O)cc1	2.1 nM	
COc1ccccc1CN(CCCC[C@H](NC(=O)N[C@@H](CCC(=O)O)C(=O)O)C(=O)O)C(=O)CCCCCNC(=O)CCC(=O)N[C@@H](Cc1ccccc1)C(=O)N[C@@H](Cc1ccccc1)C(=O)NCCCN=[N+]=[N-]	38 nM	
CN1/C(=C/C=C/C=C/C2=[N+](CCCCCC(=O)NCc3cn(CCCNC(=O)[C@H](Cc4ccccc4)NC(=O)[C@H](Cc4ccccc4)NC(=O)CCC(=O)NCCCCCC(=O)N(CCCC[C@H](NC(=O)N[C@@H](CCC(=O)O)C(=O)O)C(=O)O)Cc4ccccc4[N+](=O)[O-])nn3)c3ccc(S(=O)(=O)[O-])cc3C2(C)C)C(C)(C)c2cc(S(=O)(=O)O)ccc21		Active
CN1/C(=C/C=C/C=C/C2=[N+](CCCCCC(=O)NCc3cn(CCCNC(=O)[C@H](Cc4ccccc4)NC(=O)[C@H](Cc4ccccc4)NC(=O)CCC(=O)NCCCCCC(=O)N(CCCC[C@H](NC(=O)N[C@@H](CCC(=O)O)C(=O)O)C(=O)O)Cc4ccc(C(=O)O)cc4)nn3)c3ccc(S(=O)(=O)[O-])cc3C2(C)C)C(C)(C)c2cc(S(=O)(=O)O)ccc21		Active
[N-]=[N+]=NCCCNC(=O)[C@H](Cc1ccc(O)cc1)NC(=O)[C@H](Cc1ccccc1)NC(=O)CCC(=O)NCCCCCC(=O)N(CCCC[C@H](NC(=O)N[C@@H](CCC(=O)O)C(=O)O)C(=O)O)Cc1ccc(C(=O)O)cc1	19 nM	
[N-]=[N+]=NCCCNC(=O)[C@H](Cc1ccc(O)c([N+](=O)[O-])c1)NC(=O)[C@H](Cc1ccccc1)NC(=O)CCC(=O)NCCCCCC(=O)N(CCCC[C@H](NC(=O)N[C@@H](CCC(=O)O)C(=O)O)C(=O)O)Cc1cccc(Cl)c1	1.5 nM	
COc1ccc(CN(CCCC[C@H](NC(=O)N[C@@H](CCC(=O)O)C(=O)O)C(=O)O)C(=O)CCCCCNC(=O)CCC(=O)N[C@@H](Cc2ccccc2)C(=O)N[C@@H](Cc2ccccc2)C(=O)NCCCN=[N+]=[N-])cc1OC	88 nM	

More lines, now with the values ahead:

IC50 [1]	Drug uptake [2]	SMILES
51 nM		CCOc1ccc(CN(CCCC[C@H](NC(=O)N[C@@H](CCC(=O)O)C(=O)O)C(=O)O)C(=O)CCCCCNC(=O)CCC(=O)N[C@@H](Cc2ccccc2)C(=O)N[C@@H](Cc2ccccc2)C(=O)NCCCN=[N+]=[N-])cc1
35 nM		[N-]=[N+]=NCCCNC(=O)[C@H](Cc1ccccc1)NC(=O)[C@H](Cc1ccccc1)NC(=O)CCC(=O)NCCCCCC(=O)N(CCCC[C@H](NC(=O)N[C@@H](CCC(=O)O)C(=O)O)C(=O)O)Cc1ccc([N+](=O)[O-])cc1
24 nM		[N-]=[N+]=NCCCNC(=O)[C@H](Cc1ccccc1)NC(=O)[C@H](Cc1ccccc1)NC(=O)CCC(=O)NCCCCCC(=O)N(CCCC[C@H](NC(=O)N[C@@H](CCC(=O)O)C(=O)O)C(=O)O)Cc1ccc(O)cc1
112 nM		COc1ccc(CN(CCCC[C@H](NC(=O)N[C@@H](CCC(=O)O)C(=O)O)C(=O)O)C(=O)CCCCCNC(=O)CCC(=O)N[C@@H](Cc2ccccc2)C(=O)N[C@@H](Cc2ccccc2)C(=O)NCCCN=[N+]=[N-])cc1
7 nM		[N-]=[N+]=NCCCNC(=O)[C@H](Cc1ccccc1)NC(=O)[C@H](Cc1ccccc1)NC(=O)CCC(=O)NCCCCCC(=O)N(CCCC[C@H](NC(=O)N[C@@H](CCC(=O)O)C(=O)O)C(=O)O)Cc1ccc(C(=O)O)cc1
